Measured values reported in US5750141A, “Administration of vaso-active agent and therapeutic agent” (The University of Queensland, priority 1993, dated 1998).
Like-named read-outs stand apart in the source and are kept apart here.

Tests used:
[1] = nitroglycerine; cited from earlier work
[2] = topical ointment; cited from earlier work
[3] = assay type: in vivo, rat (male Wistar)
[4] = assay type: in vivo, rat (male Wistar); remark: listed apart in the source
Experimental: Male Wistar rats (348±20 g) were anaesthetised i.p. with sodium pentobarbitone (60 mg/kg) and laid abdomen down on a heating pad (37° C.) with the left hindleg extending over the edge of the pad. The left hind foot was cleaned with cotton wool swabs soaked in a dilute solution of ethanol then dried. The foot was then immersed, to a standard position marked on the ankle joint, in 2 ml of vehicle solution (30% propylene glycol/30% ethanol/40% water) containing ^3 H-water (Sigma, Australia) with (n=3) or without (n=3) 2% GTN (David Bull Laboratories Pty Ltd. Melbourne, Australia). Solutions were left in contact with the foot for 2 hours with 10 μl samples taken at time zero and at the end of the absorption period. After 2 hrs a blood sample was taken from the tail vein and animals were sacrificed by cervical dislocation whilst still anaesthetised. The rat paws were cleaned as previously to remove any excess radiolabelled solute from the surface. Skin from the upper part of the foot, the foot pad and foot muscles were dissected from each treated and contralateral paw, placed into preweighed scintillation vials, solubilised with NCS (Amersham, Australia) and counted for radioactivity, along with the 10 μl solution samples, following the addition of the appropriate scintillation cocktail. Statistical analysis was performed using a Student unpaired t-test, with significance taken at the P<0.05 level.

[5] = parameters: species or system rat (male Wistar)
Experimental: The following experiment was designed to determine the effect of changes in tissue blood flow (perfusion) on the transdermal absorption and subsequent tissue distribution of 3H-water.
Hindlimb perfusions: Briefly, rats (malc Wistar 280-340 g) were anaesthetised with sodium pentobarbitone 60 mg/ig i.p., the abdomen opened and the right femoral artery cannulated (PESO) via the aorta. A second cannula (PE205) was placed in the dorsal vena cava, and the hindlimb perfused in a humidicrib at 37° C. with oxygenated (95%O2 /5%CO2) Krebs Heinseleit Ringer (mM: NaCl 118, KCl 4.74, KH2 PO4 1.18, MgSO4.7H2 O 0 1.18 CaCl2.2H2 O 2.54, NaHCO3 25, Glucose 11.1;pH 7.4, 37° C.), containing 4% bovine serum albumin (Fraction V, Sigma). Once the perfusions were established rats were sacrificed by creating a pneumothorax and turned over so that cells could be attached to the outer thigh of the perfused limb. The pressure of the inflowing perfusate was continuously monitored, mean pressures were in the order of 30 and 40 mmHg at 4 and 8ml/min respectively. The perfused preparation is stable for up to 2 hrs, as validated by testing inflowing and outflowing perfusate samples for pH, dissolved oxygen concentrations, together with various enzyme and ion concentrations. The perfusion flow rates were controlled by a graduated peristaltic pump, and were measured at the beginning and end of each experiment.
Glass diffusion cells (8 cm high, 1.8 cm internal diameter, 2.54 cm^2 skin application area), were fixed to the skin on the outer thigh of the perfused hindlimb with adhesive. The application area on the hindlimb was first depilated with commercial Nair™ hair-removal cream and the epidermis removed using a dermatome before the perfusion was established. Solutions (2 ml) containing trace amounts of the radiolabelled ^3 H-water (Sigma Chemical Co, Australia), in phosphate buffered saline (pH 7.4, 37° C.) were introduced into the cell at time 0. Absorption studies were conducted for 90 minutes, after which time the cell contents were drawn out with a pipette, the cell removed and the tissues from beneath the position of the cell sequentially dissected into preweighed vials for weight determination, solubilisation and liquid scintillation counting.

[6] = for Change in salicylic acid clearance from solutions applied to the dermis: FIG. 1
Experimental: In vivo dermal penetration and local tissue uptake studies: The rats were lightly anaesthetised by pentobarbitone (35mg/kg) and their body temperature maintained at 37° C. by placing them on a heating pad. The hair from the 4 cm^2 dorsum area were removed by electric clippers and the epidermis removed by means of an electrodermatome set at a thickness of 80 microns. A dermal absorption cell was adhered to the exposed rat dermis and warmed to 37° C. by means of an external heating device.
Solution of solute spiked with corresponding labelled substance and containing an appropriate concentration of phenylephrine, previously warmed to 37° C., was introduced into the dermal absorption cell and the solution stirred by a glass stirrer driven by an external motor. Samples were removed from the donor cell at predetermined times and placed in preweighed scintillation vials. The glass cell was removed from the rat skin at the end of two hour dermal perfusion study and the application area wiped dry with blotting paper. A blood sample was then taken from the tail vein and the animals sacrificed with overdoes of anaesthetic ether. Immediately thereafter the tissues below the treated site i.e. skin, subcutaneous tissue, fascia, muscle lining or superficial muscle, muscle, fat pad and deep muscle were removed from dissection and placed in preweighed scintillation vials. Similarly, the tissues below the contralateral side were also removed. Tissue and plasma samples were stored at -20° C. prior to analysis. In vivo dermal penetration and local tissue uptake studies (sacrificed animals): The rats were initially anaesthetised by intraperitoneal injection of pentobarbitone (35 mg/kg) and after removing epidermis as described above, were sacrificed by overdose of ether. Dermal perfusion and tissue uptake studies were then conducted in postmortem rats.
The phenylephrine induced reduction in blood flow to dermis was determined by monitoring the dermal clearance of tritiated water in presence of phenylephrine.
Aqueous samples removed from the glass cells in in vivo dermal perfusion studies were directly mixed with 5 ml of liquid scintillation cocktail BCS and counted on liquid scintillation counter. The tissue samples were solubilised with 50 μl of water and 1 ml of tissue solubilizer NCS at 50° C. for 6-8 hrs.

[7] = reductions in blood flow; cited from earlier work
[8] = 30° C.; Michaels et al.; cited from earlier work
[9] = postmortem conditions; cited from earlier work
[10] = 2% GTN vs vehicle, 2 hours, FIG. 5

Structure (SMILES): O=[N+]([O-])OCC(CO[N+](=O)[O-])O[N+](=O)[O-] [nitroglycerine]
- Water solubility [1]: 1.3 mg/mL

Structure (SMILES): CCCCC[C@H](O)/C=C/[C@@H]1[C@H]2C/C(=C/CCCC(=O)O)O[C@H]2C[C@H]1O [Prostaglandin I2 (PGI2)]
- Effectiveness in the treatment of skin ulcers [2]: effective in the treatment of skin ulcers

Structure (SMILES): O [Water]
- Concentration in plasma and contralateral tissues ([3]; in the presence of phenylephrine): decreased
- Concentration in tissues below the application area ([3]; in the presence of phenylephrine, FIGS. 3 & 4): increased
- Concentration of water in upper skin and muscle tissues of the contralateral limb ([4]; 2% GTN vs vehicle): significant increase
- Concentration in the outer skin or foot pad of the rat paw [4, 10]: no significant change
- Concentration of water in the deeper foot muscles [4, 10]: highly significant increase
- Plasma concentration of water ([4]; 2% GTN vs vehicle, 2 hours, P=0.046, FIG. 5): significant increase
- Underlying tissue concentration of topically coadministered 3H-water ([4]; topical GTN, anaesthetised animals): significantly increase
- Dependence of tissue concentrations on perfusion flow rate ([5]; 4 vs 8 ml/min): great dependence on perfusion flow rate
- Tissue concentration of water in dermis (2 mm) and superficial muscle layer (5 mm) ([5]; 8 ml/min vs 4 ml/min, p<0.05): statistically lower
- Tissue concentration of water in the deeper muscle layers ([5]; lower flow rate (4 ml/min)): higher concentrations
- Increase in clearance from the dermal cell ([5]; perfusion flow rate raised from 4 ml/min to 8 ml/min, p<0.05, 90 minutes, pH 7.4, 37° C.): 31%
- Dermal clearance (Mean ± S.D.) ([6]; Control (no phenylephrine), anaesthetised rats, 37° C., two hour study): 1.10 ± 0.24 mL/h
- Dermal clearance (Mean ± S.D.) ([6]; Phenylephrine (1:5000)): 0.40 ± 0.02 mL/h
- Dermal clearance (Mean ± S.D.) ([6]; Phenylephrine (1:20000)): 0.53 ± 0.05 mL/h
- Dermal clearance (Mean ± S.D.) ([6]; Sacrificed animals): 0.36 ± 0.02 mL/h
- Absorption from dermal and subcutaneous sites [7]: significant reductions in absorption

Structure (SMILES): O=C(O)c1ccccc1O [salicylic acid]
- Plasma levels and levels in contralateral tissues ([3]; PE concentration of 0.1%, FIG. 2a-h): sudden increase
- Concentration in underlying tissues (fraction of initial concentration) ([3]; PE concentrations above 0.01%, FIG. 2a-g): approach a constant value
- Concentration in underlying tissues (fraction of initial concentration) ([3]; PE up to 0.01%, underlying tissues except for fat pad, FIG. 2a-g): increase with increase in concentration of PE up to 0.01%
- Systemic salicylic acid blood levels ([3]; increasing phenylephrine concentration, FIG. 2h): gradual decline
- Concentration in contralateral tissues ([3]; increasing phenylephrine concentrations, FIG. 2a-g): decreased with increasing phenylephrine concentrations
- Concentration in deep muscle ([3]; phenylephrine 0.01%): maximum concentrations
- Concentration in deep muscle ([3]; phenylephrine above 0.01%): decreases
- Change in salicylic acid clearance from solutions applied to the dermis ([6]; increasing phenylephrine concentration up to 0.05%): decreased up to phenylephrine concentration of 0.05%
- Change in salicylic acid clearance from solutions applied to the dermis ([6]; phenylephrine 0.1%): no further decrease

Structure (SMILES): CN[C@@H](C)[C@H](O)c1ccccc1 [ephedrine]
- Maximum flux through skin [8]: 250-400 μg/cm^2 per hr

Structure (SMILES): CN(Cc1cnc2nc(N)nc(N)c2n1)c1ccc(C(=O)N[C@@H](CCC(=O)O)C(=O)O)cc1 [methotrexate]
- Disappearance from dermal and subcutaneous sites [9]: reduced
